Consider eleven molecules from patent US20150183802A1, “TRICYCLIC SULFONAMIDE DERIVATIVES” (NOVARTIS AG, priority 2013, published 2015).

Each structure is given as a SMILES string.

The target in this test is T1, hNav1.7 channels (Homo sapiens, UniProt Q15858).
T1 construct: host or cells: HEK293
Kind of test: hNav1.7 channel in vitro patch-clamp assay. It counts as cell-based. Conditions: stable HEK293 cell line expressing hNav1.7; whole cell patch-clamp (QPatch HTX and/or conventional), room temperature; voltage protocol not given. The method, then: hNav1.7 Channel In Vitro Patch-Clamp Assay
Cells: Sable HEK293 (human embryonic kidney) cell line expressing hNav1.7 channels was used in the assay. The cell line was obtained from Millipore (Millipore Corporation, MA).
Patch-clamp recordings: The recordings were performed on QPatch HTX (Sophion Bioscience, Denmark) and/or conventional patch-clamp (Axon Multiclamp 700B systems, Molecular Devices, CA) platforms at room temperature, using whole cell patch-clamp techniques. The composition of extracellular solution was (in mM): HEPES 5, NaCl 40, KCl 3, CaCl2 1, MgCl2 1, Choline Chloride 100. Adjust pH to 7.2 with 1N NaOH, osmolarity to 300-310 mOsm with sucrose. The composition of intracellular solution was (in mM): HEPES 10, NaCl 10, Na2ATP 1, MgCl2 2, KF 135, EGTA 10. Adjust pH to 7.2 with 1N NaOH, osmolarity to 290-300 mOsm with sucrose.
For conventional patch-clamp, 35 mm culture dishes containing hNav1.7 cells were placed on the stage of an inverted microscope and continuously perfused with extracellular solution from a perfusion system (Biologic Rapid solution changer, RSC-160, ˜1 ml/min). […] The recordings were controlled by pCLAMP10 software. Test compounds were dissolved in 100% DMSO to make stock solutions for each test concentration, and then diluted into extracellular solution to achieve final concentration for testing. Final DMSO concentration was less than 0.3%. Two voltage protocols were used in hNav1.7 assay: for non-inactivated protocol, the sodium currents were elicited by a 2 ms pulse to −10 mV from a holding potential of −110 mV. For inactivated protocol, the holding potential was set at V1/2. The voltage was firstly stepped to −110 mV for 50 ms, then to −10 mV for 2 ms and then stepped back to holding potential. In both protocols the voltage command was given in every 10 s. Compound effect (% inhibition) was determined by difference in current amplitude before and after the application of test compounds. IC50 values were determined from concentration-response curves that were obtained with Hill fitting.
For QPatch HTX assay, hNav1.7 cells grown to 50%-80% confluence were rinsed with DPBS and dissociated with Tryple (Invitrogen, 12605-010). The dissociated cells were then mixed with extracellular solution. After centrifuge, the cells were resuspended in extracellular solution and used in the QPatch experiment. The whole-cell protocols, voltage protocols and application protocols were established with QPatch Assay Software 3.4 (Sophion Bioscience, Denmark). Only the inactivated protocol was used in the QPatch assay.

By IC50 is commonly meant the concentration that inhibits the measured activity by half. The low end stands for inhibition by little substance, the high end for a need for much substance.

T1 sequence (Q15858 whole entry): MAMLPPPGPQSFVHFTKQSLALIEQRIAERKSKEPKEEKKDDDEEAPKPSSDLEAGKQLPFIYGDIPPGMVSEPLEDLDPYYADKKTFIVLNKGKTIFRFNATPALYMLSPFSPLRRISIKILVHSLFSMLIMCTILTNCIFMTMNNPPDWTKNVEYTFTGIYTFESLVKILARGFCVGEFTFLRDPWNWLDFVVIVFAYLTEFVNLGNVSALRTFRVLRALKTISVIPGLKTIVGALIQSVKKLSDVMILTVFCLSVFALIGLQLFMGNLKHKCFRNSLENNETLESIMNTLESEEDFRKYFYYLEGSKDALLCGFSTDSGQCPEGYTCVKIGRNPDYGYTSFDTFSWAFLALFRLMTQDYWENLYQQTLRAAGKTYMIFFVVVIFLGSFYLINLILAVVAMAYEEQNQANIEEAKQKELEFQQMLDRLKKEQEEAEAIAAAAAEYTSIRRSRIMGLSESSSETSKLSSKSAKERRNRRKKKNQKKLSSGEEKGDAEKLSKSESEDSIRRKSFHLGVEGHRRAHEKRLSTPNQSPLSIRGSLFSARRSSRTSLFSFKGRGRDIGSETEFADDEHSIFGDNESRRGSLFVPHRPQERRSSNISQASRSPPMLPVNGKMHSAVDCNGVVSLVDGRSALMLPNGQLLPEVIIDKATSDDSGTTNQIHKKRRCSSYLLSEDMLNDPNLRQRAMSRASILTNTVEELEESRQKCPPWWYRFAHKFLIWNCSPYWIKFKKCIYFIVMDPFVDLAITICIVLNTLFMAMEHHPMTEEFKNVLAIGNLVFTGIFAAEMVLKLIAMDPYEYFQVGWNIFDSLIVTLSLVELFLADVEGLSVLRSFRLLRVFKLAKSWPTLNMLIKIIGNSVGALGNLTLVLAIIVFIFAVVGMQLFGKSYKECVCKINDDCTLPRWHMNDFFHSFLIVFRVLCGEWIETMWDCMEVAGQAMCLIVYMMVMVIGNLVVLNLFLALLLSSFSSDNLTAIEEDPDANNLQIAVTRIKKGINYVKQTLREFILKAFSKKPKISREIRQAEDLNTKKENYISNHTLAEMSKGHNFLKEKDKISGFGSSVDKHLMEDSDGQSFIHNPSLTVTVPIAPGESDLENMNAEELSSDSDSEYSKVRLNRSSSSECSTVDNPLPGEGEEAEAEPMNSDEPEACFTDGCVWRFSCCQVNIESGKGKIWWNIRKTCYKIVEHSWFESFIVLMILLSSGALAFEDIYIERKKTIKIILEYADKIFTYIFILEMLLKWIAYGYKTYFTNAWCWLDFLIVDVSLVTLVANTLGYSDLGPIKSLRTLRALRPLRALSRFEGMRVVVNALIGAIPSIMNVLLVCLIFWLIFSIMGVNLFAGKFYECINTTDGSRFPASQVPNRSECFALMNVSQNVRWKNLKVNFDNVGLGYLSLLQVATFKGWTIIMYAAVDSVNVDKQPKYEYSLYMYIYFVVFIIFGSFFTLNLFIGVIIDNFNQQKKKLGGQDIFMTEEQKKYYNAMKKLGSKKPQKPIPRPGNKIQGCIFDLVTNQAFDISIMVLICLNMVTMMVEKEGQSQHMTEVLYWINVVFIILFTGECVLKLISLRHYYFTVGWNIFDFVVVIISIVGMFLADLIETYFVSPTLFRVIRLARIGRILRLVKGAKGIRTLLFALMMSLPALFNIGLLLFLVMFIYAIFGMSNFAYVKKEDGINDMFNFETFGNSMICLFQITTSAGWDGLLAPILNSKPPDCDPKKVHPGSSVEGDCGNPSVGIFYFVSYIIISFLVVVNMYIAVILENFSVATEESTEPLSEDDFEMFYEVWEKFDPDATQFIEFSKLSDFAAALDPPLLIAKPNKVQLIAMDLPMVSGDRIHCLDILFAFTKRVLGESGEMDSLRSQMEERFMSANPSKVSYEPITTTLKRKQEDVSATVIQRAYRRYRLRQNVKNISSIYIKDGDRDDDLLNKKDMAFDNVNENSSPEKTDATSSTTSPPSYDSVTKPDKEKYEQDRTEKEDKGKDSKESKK

As for `CC(C)COc1ncc(N2C(=O)C3(CC3)c3cc4c(NS(C)(=O)=O)noc4cc32)cc1Cl` [Example 1, N-(7′-(5-chloro-6-isobutoxypyridin-3-yl)-6′-oxo-6′,7′-dihydrospiro[cyclopropane-1,5′-isoxazolo[4,5-f]indol]-3′-yl)methanesulfonamide], it took 150 nM to reach half-maximal inhibition (IC50).

For the molecule `CC(C)COc1ncc(N2C(=O)C3(CC3)c3cc4c(NS(=O)(=O)C5CC5)noc4cc32)cc1Cl` [Example 2, N-(7′-(5-chloro-6-isobutoxypyridin-3-yl)-6′-oxo-6′,7′-dihydrospiro[cyclopropane-1,5′-isoxazolo[4,5-f]indol]-3′-yl)cyclopropanesulfonamide], it took 80 nM to reach half-maximal inhibition (IC50). Take `CC(C)COc1ncc(N2C(=O)C3(CC3)c3cc4c(NS(=O)(=O)C(C)C)noc4cc32)cc1Cl` [Example 3, N-(7′-(5-chloro-6-isobutoxypyridin-3-yl)-6′-oxo-6′,7′-dihydrospiro[cyclopropane-1,5′-isoxazolo[4,5-f]indol]-3′-yl)propane-2-sulfonamide]: the IC50 worked out at 100 nM.

`CCS(=O)(=O)Nc1noc2cc3c(cc12)C1(CC1)C(=O)N3c1cnc(OCC(C)C)c(Cl)c1` [Example 4, N-(7′-(5-chloro-6-isobutoxypyridin-3-yl)-6′-oxo-6′,7′-dihydrospiro[cyclopropane-1,5′-isoxazolo[4,5-f]indol]-3′-yl)ethanesulfonamide]: the IC50 was 100 nM. The molecule `CC(C)COc1ncc(N2C(=O)C3(CC3)c3cc4c(NS(=O)(=O)C(F)(F)F)noc4cc32)cc1Cl` [Example 5, N-(7′-(5-chloro-6-isobutoxypyridin-3-yl)-6′-oxo-6′,7′-dihydrospiro[cyclopropane-1,5′-isoxazolo[4,5-f]indol]-3′-yl)-1,1,1-trifluoromethanesulfonamide] displayed an IC50 of 430 nM. The figure for `CC(C)COc1ncc(N2C(=O)C3(CC3)c3cc4c(NS(=O)(=O)c5ccccc5)noc4cc32)cc1Cl` [Example 6, N-(7′-(5-chloro-6-isobutoxypyridin-3-yl)-6′-oxo-6′,7′-dihydrospiro[cyclopropane-1,5′-isoxazolo[4,5-f]indol]-3′-yl)benzenesulfonamide] is 3000 nM; for `CC(C)COc1ncc(N2C(=O)C3(CC3)c3cc4c(NS(=O)(=O)c5cccs5)noc4cc32)cc1Cl` [Example 7, N-(7′-(5-chloro-6-isobutoxypyridin-3-yl)-6′-oxo-6′,7′-dihydrospiro[cyclopropane-1,5′-isoxazolo[4,5-f]indol]-3′-yl)thiophene-2-sulfonamide] it is 500 nM.

`CC(C)COc1ncc(N2C(=O)C3(CC3)c3cc4c(NS(N)(=O)=O)noc4cc32)cc1Cl` [Example 8, N-(7′-(5-chloro-6-isobutoxypyridin-3-yl)-6′-oxo-6′,7′-dihydrospiro[cyclopropane-1,5′-isoxazolo[4,5-f]indol]-3′-yl)aminosulfonamide] came in with an IC50 of 2000 nM. `CC(C)COc1ncc(N2C(=O)C3(CC3)c3cc4c(NS(=O)(=O)N(C)C)noc4cc32)cc1Cl` [Example 9, N-(7′-(5-chloro-6-isobutoxypyridin-3-yl)-6′-oxo-6′,7′-dihydrospiro[cyclopropane-1,5′-isoxazolo[4,5-f]indol]-3′-yl)dimethylamino-1-sulfonamide]: half-maximal inhibition (IC50) required 1230 nM.

On to `CC(C)COc1ncc(N2C(=O)C3(CC3)c3cc4c(NS(=O)(=O)N5CCCC5)noc4cc32)cc1Cl` [Example 10, N-(7′-(5-chloro-6-isobutoxypyridin-3-yl)-6′-oxo-6′,7′-dihydrospiro[cyclopropane-1,5′-isoxazolo[4,5-f]indol]-3′-yl)pyrrolidine-1-sulfonamide], for which the midpoint of inhibition, the IC50, lay at 500 nM.

Take `CS(=O)(=O)Nc1noc2cc3c(cc12)C1(CC1)C(=O)N3c1cnc(OCC2CCCCC2)c(Cl)c1` [Example 11, N-(7′-(5-chloro-6-(cyclohexylmethoxy)pyridin-3-yl)-6′-oxo-6′,7′-dihydrospiro[cyclopropane-1,5′-isoxazolo[4,5-f]indol]-3′-yl)methanesulfonamide]: half-maximal inhibition (IC50) was put at 100 nM.
